Measured values reported in ChEMBL document CHEMBL1687699, “Discovery of Dual VEGFR-2 and Tubulin Inhibitors with in Vivo Efficacy” (ACS Med Chem Lett, 2010).
The source made the active and inactive calls. The rule behind the calls is not given here.

Legend:
[1] = Inhibition of bovine tubulin polymerization after 30 mins by turbidity assay; parameters: species or system Bos taurus
[2] = test system: A-431; experiment: cells; conditions: Homo sapiens, A-431, 24 h
Description: Cell cycle arrest in human A431 cells assessed as accumulation at G2/M phase after 24 hrs using propidium iodide staining by cell sorting method

[3] = biological target: T1, Vascular endothelial growth factor receptor 2 (Homo sapiens, UniProt P35968); experiment: Inhibition of VEGFR2 expressed HEK293 cells; type: cell-based
T1 sequence (P35968 whole entry): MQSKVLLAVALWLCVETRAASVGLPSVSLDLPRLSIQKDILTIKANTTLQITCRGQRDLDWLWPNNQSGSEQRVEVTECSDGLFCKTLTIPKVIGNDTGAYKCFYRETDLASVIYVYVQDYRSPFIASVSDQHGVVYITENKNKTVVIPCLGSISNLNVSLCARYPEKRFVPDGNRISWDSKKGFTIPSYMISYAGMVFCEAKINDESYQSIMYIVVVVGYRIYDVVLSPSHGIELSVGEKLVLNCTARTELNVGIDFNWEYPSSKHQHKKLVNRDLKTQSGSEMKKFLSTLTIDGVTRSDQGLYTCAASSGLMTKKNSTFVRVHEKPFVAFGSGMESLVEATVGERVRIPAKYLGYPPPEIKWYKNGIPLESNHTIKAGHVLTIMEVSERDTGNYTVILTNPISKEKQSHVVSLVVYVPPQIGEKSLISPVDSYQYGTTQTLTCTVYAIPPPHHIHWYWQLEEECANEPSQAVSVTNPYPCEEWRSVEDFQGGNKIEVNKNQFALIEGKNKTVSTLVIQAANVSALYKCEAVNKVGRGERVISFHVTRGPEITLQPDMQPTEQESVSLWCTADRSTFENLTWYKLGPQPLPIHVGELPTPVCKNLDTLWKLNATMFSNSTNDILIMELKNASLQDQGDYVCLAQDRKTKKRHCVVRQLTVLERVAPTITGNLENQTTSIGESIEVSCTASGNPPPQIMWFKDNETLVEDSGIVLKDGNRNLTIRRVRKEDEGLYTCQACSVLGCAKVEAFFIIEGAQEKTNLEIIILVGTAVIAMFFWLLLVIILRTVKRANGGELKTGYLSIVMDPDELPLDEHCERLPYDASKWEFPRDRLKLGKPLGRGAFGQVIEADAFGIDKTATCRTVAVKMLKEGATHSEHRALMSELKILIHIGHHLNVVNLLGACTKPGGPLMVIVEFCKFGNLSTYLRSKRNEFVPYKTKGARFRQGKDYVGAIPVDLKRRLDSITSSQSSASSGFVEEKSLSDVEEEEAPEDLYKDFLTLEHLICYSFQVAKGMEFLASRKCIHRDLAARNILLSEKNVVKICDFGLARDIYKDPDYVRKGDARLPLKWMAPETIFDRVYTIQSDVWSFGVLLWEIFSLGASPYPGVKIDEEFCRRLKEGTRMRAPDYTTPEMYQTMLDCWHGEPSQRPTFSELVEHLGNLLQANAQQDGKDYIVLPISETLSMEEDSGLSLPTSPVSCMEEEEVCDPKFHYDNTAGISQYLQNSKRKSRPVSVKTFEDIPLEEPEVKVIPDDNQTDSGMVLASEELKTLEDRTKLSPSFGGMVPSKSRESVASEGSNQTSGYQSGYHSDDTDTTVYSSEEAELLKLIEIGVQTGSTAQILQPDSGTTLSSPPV

[4] = biological target: T1, Vascular endothelial growth factor receptor 2; experiment: Inhibition of VEGFR-2 kinase assessed as phosphorylated level of pGAT-biotin peptide preincubated for 5 to 10 mins before addition of substrate measured after 2 hrs by HTRF assay
[5] = test system: Mus musculus; experiment: Toxicity in mouse assessed as white blood cell depletion at 100 mg/kg administered once a week; type: organism-based; parameters: dose 100 mg/kg; conditions: in vivo
[6] = test system: Mus musculus; experiment: Toxicity in mouse assessed as neuropathy at 100 mg/kg administered once a week; type: organism-based; parameters: dose 100 mg/kg; conditions: in vivo
[7] = Toxicity in po dosed mouse; type: organism-based; conditions: in vivo
[8] = test system: Mus musculus; experiment: Toxicity in mouse assessed as discomfort signs at 100 mg/kg, po administered once a week; type: organism-based; parameters: dose 100 mg/kg, route oral; conditions: in vivo
[9] = biological target: Cyclin-dependent kinase 1 (Homo sapiens) (UniProt P06493); experiment: Inhibition of CDK1
Sequence of Cyclin-dependent kinase 1 (Homo sapiens) (P06493 whole entry, looked up): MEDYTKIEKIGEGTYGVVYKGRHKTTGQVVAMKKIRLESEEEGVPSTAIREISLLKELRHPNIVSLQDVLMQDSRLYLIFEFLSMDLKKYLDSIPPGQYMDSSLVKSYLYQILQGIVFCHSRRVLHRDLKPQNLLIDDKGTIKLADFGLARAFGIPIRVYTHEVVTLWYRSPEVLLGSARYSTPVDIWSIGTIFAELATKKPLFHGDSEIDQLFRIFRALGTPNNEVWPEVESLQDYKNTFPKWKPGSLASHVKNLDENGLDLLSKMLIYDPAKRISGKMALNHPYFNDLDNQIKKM

[10] = biological target: T2, Aurora kinase A (Homo sapiens) (UniProt O14965); experiment: Inhibition of Aurora A kinase
T2 sequence (whole entry): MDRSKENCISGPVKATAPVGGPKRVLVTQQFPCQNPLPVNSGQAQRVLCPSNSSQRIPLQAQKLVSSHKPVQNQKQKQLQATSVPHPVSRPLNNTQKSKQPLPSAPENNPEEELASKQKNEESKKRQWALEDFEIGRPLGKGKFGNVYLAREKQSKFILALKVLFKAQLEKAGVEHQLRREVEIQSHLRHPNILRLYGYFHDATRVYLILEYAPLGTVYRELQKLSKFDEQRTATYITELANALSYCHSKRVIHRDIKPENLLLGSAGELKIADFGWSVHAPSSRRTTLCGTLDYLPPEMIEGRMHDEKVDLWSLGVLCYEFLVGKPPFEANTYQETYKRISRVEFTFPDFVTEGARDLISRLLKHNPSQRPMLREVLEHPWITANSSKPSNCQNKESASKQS

[11] = test system: Mus musculus; experiment: Toxicity in mouse assessed as body weight change at 100 mg/kg, po administered once a week; type: organism-based; parameters: dose 100 mg/kg, route oral; conditions: in vivo
[12] = Antitumor activity against human MDA-MB-435-LM2 cells xenografted in mouse assessed as tumor size at 100 mg/kg, po administered once a week measured on day 26 relative to control; type: functional
[13] = test system: Mus musculus; experiment: Toxicity in mouse assessed as abnormal pathology at 100 mg/kg, po administered once a week; type: organism-based; parameters: dose 100 mg/kg, route oral; conditions: in vivo
[14] = biological target: Serine/threonine-protein kinase PLK1 (Homo sapiens) (UniProt P53350); experiment: Inhibition of polo-like kinase 1
Sequence of Serine/threonine-protein kinase PLK1 (Homo sapiens) (P53350 whole entry): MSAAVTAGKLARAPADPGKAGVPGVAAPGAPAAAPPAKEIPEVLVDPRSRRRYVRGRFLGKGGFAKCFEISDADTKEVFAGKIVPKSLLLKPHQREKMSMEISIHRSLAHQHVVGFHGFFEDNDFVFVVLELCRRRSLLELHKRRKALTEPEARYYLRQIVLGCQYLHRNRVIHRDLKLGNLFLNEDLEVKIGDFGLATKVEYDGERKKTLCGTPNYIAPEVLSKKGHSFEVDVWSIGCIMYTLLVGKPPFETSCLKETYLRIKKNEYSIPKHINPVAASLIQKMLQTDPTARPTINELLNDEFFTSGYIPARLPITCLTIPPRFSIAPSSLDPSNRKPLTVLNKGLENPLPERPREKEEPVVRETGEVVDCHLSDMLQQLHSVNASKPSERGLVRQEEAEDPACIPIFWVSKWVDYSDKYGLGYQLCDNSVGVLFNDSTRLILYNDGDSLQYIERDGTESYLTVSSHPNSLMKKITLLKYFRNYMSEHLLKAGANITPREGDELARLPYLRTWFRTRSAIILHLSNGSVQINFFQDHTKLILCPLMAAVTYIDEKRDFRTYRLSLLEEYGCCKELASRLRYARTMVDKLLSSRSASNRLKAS

[15] = test system: Mus musculus; experiment: Toxicity in mouse assessed as inflamed intestine at 100 mg/kg, po administered once a week; type: organism-based; parameters: dose 100 mg/kg, route oral; conditions: in vivo
[16] = test system: Mus musculus; experiment: Toxicity in mouse assessed as moribund at 100 mg/kg, po administered once a week measured on day 26; type: organism-based; parameters: dose 100 mg/kg, route oral; conditions: in vivo
[17] = test system: Mus musculus; experiment: Toxicity in mouse assessed as enlarged intestine at 100 mg/kg, po administered once a week; type: organism-based; parameters: dose 100 mg/kg, route oral; conditions: in vivo
[18] = test system: Mus musculus; experiment: Toxicity in mouse assessed as distended stomach at 100 mg/kg, po administered once a week; type: organism-based; parameters: dose 100 mg/kg, route oral; conditions: in vivo

| IC50 [1] [µM] | EC50 [2] [µM] | IC50 [3] [µM] | IC50 [4] [µM] | SMILES | also measured |
| --- | --- | --- | --- | --- | --- |
| 8.1 | 0.049 | > 10 | 5.1 | c1ccc(-c2nnc(Nc3ccc4c(c3)OCCO4)[nH]2)c(NCc2ccncc2)c1 | – |
| 0.7 | – | > 10 | > 10 | c1cncc(CNc2ncccc2-c2nnc(Nc3ccc4c(c3)OCCO4)o2)c1 | – |
| > 10 | > 10 | > 10 | 2.5 | FC(F)(F)c1cccc(-c2nnc(-c3cccnc3NCc3ccncc3)o2)c1 | – |
| > 10 | > 10 | 7.3 | 3.1 | c1ccc(-c2nnc(Nc3ccc4c(c3)OCCO4)[nH]2)c(NCc2ccc3[nH]ncc3c2)c1 | – |
| 1.9 | – | > 10 | > 10 | c1ccc(CNc2ncccc2-c2nnc(Nc3ccc4c(c3)OCCO4)o2)nc1 | – |
| – | – | – | – | CC(=O)O[C@H]1C(=O)[C@@]2(C)[C@H]([C@H](OC(=O)c3ccccc3)[C@]3(O)C[C@H](OC(=O)[C@H](O)[C@@H](NC(=O)c4ccccc4)c4ccccc4)C(C)=C1C3(C)C)[C@]1(OC(C)=O)CO[C@@H]1C[C@@H]2O [PACLITAXEL] | Activity [15]: Toxic; Activity [11]: 2.8%; Activity [16]: Toxic; Activity [17]: Toxic; Activity [18]: Toxic; Activity [12]: 78% |
| > 10 | > 10 | > 10 | 4.6 | c1ccc(-c2nnc(Nc3ccc4c(c3)OCCO4)[nH]2)c(NCc2cnc[nH]2)c1 | – |
| > 10 | > 10 | > 10 | > 10 | c1ccc(-c2nnc(Nc3ccc4c(c3)OCCO4)[nH]2)c(NCc2ccc3ncccc3c2)c1 | – |
| 1.25 | 0.034 | > 10 | 1.4 | c1cnc(NCc2ccc3[nH]ncc3c2)c(-c2nnc(Nc3ccc4c(c3)OCCO4)o2)c1 | – |
| 0.71 | – | > 10 | 2.6 | c1cnc(NCc2ccc3c(c2)OCO3)c(-c2nnc(Nc3ccc4c(c3)OCCO4)o2)c1 | – |
| 1 | – | > 10 | 1.89 | c1cnc(NCc2ccncc2)c(-c2nnc(Nc3ccc4c(c3)OCO4)o2)c1 | – |
| 1.7 | > 10 | > 10 | 3.41 | c1cncc(CCNc2ncccc2-c2nnc(Nc3ccc4c(c3)OCO4)o2)c1 | – |
| > 10 | > 10 | > 10 | > 10 | c1cncc(CCNc2ncccc2-c2nnc(Nc3ccc4c(c3)OCCO4)o2)c1 | – |
| 1.5 | 0.01 | 0.83 | 0.16 | c1cnc(NCc2cnc[nH]2)c(-c2nnc(Nc3ccc4c(c3)OCCO4)o2)c1 | – |
| 1.45 | 0.018 | 0.22 | 0.3 | c1cnc(NCc2ccc3ncccc3c2)c(-c2nnc(Nc3ccc4c(c3)OCCO4)o2)c1 | inhibition [9]: Active; inhibition [10]: Active; inhibition [14]: Active |
| 2.5 | 0.52 | > 10 | > 10 | c1cnc(NCc2ccc3c(c2)OCO3)c(-c2nnc(Nc3ccc4c(c3)OCO4)o2)c1 | – |
| > 10 | > 10 | > 10 | > 10 | c1cnc(NCCc2ccncc2)c(-c2nnc(Nc3ccc4c(c3)OCCO4)o2)c1 | – |
| 0.69 | 0.62 | > 10 | 0.83 | c1ccc(-c2nnc(Nc3ccc4c(c3)OCO4)o2)c(NCc2ccncc2)c1 | – |
| 1.7 | – | > 10 | > 10 | c1ccc(CNc2ncccc2-c2nnc(Nc3ccc4c(c3)OCO4)o2)nc1 | – |
| 8.8 | – | > 10 | > 10 | c1cncc(CNc2ncccc2-c2nnc(Nc3ccc4c(c3)OCO4)o2)c1 | – |
| 6.6 | > 10 | > 10 | 4.5 | CS(=O)(=O)c1ccc(-c2nnc(-c3cccnc3NCC3COCCO3)[nH]2)cc1 (stereo unspecified) | – |
| 0.5 | – | 1 | 0.17 | c1cnc(NCc2ccncc2)c(-c2nnc(Nc3ccc4c(c3)OCCO4)o2)c1 | – |
| > 10 | > 10 | > 10 | > 10 | c1cnc(NCCc2ccncc2)c(-c2nnc(Nc3ccc4c(c3)OCO4)o2)c1 | – |
| > 10 | > 10 | 1 | 1.1 | FC(F)(F)c1cccc(-c2nnc(-c3cccnc3NCc3ccncc3)[nH]2)c1 | – |
| 3.9 | > 10 | > 10 | 3.16 | FC1(F)Oc2ccc(Nc3nnc(-c4cccnc4NCc4ccncc4)o3)cc2O1 | – |
| > 10 | > 10 | 2.8 | 3.2 | c1cncc(CNc2ccccc2-c2nnc(Nc3ccc4c(c3)OCCO4)[nH]2)c1 | – |

| SMILES | IC50 [1] [µM] | EC50 [2] [µM] | IC50 [3] [µM] | IC50 [4] [µM] | also measured |
| --- | --- | --- | --- | --- | --- |
| c1ccc(-c2nnc(Nc3ccc4c(c3)OCCO4)o2)c(NCc2ccncc2)c1 | 1.09 | 0.009 | 0.11 | 0.21 | Activity [5]: Non-toxic; Activity [6]: Non-toxic; MTD [7]: 100 mg/kg; Activity [8]: Toxic; inhibition [9]: Active; inhibition [10]: Active; Activity [11]: 3.1%; Activity [12]: 28%; Activity [13]: Toxic; inhibition [14]: Active |
